Article PMC10505147, “Ustilago maydis PR-1-like protein has evolved two distinct domains for dual virulence activities” (Nature Communications, 2023)

Experiments:
[1] = molecular target: T1, CatB3 (Cathepsin B-like 3) (Zea mays, UniProt A0A804QEY3); format: biochemical; details: 0.5 mM inhibitor, substrate UmPR-1La-HA culture supernatant, 50 mM sodium acetate, 10 mM DTT, pH 5.5, 28 °C
T1 construct: gene LOC100283781; untagged, expressed with signal peptide in Nicotiana benthamiana by agroinfiltration, purified from apoplastic fluid by size exclusion

UmPR-1La (PR-1La) = molecular target: T2, UmPR-1La (PR-1La) (Mycosarcoma maydis, UniProt A0A0D1E5M0); assay: intrinsic tryptophan fluorescence; format: binding; details: 0.25 µM protein, 50 mM sodium acetate pH 5.5, room temperature, 15 min
T2 construct: gene UMAG_01204; His-tagged full-length protein without signal peptide (PR-1La 24-279), expressed in E. coli Shuffle T7, Ni-NTA and size exclusion
T2 sequence (A0A0D1E5M0 entry or part of it): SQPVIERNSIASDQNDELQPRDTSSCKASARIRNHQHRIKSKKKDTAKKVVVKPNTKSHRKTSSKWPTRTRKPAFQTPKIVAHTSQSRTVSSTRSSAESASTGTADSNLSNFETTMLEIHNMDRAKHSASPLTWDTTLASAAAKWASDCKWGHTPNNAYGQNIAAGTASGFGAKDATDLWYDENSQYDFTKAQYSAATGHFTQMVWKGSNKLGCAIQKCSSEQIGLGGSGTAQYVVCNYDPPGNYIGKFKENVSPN

T1 sequence (A0A804QEY3 entry or part of it): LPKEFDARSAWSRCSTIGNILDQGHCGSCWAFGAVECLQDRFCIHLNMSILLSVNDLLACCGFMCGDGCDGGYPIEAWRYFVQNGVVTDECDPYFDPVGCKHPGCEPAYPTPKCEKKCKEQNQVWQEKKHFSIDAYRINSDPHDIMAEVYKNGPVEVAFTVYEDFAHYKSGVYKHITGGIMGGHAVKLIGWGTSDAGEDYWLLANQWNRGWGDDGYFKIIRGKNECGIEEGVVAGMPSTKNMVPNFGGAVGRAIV

CC(C)C[C@H](NC(=O)[C@H]1O[C@@H]1C(=O)O)C(=O)NCCCCN=C(N)N [E64] was tested. Which “inhibition of UmPR-1La cleavage (immunoblot)” value [1] did it give?
Its value is “The activity of CatB3 was blocked by E64 (Fig. 5b)”.

COc1cc(/C=C/CO)ccc1O [coniferyl alcohol] was tested. Which intrinsic tryptophan fluorescence (UmPR-1La (PR-1La)) did it give?
The intrinsic tryptophan fluorescence was “both versions of the PR-1La proteins responded to CA by causing a shift”.

How did the intrinsic tryptophan fluorescence (UmPR-1La (PR-1La); 5 µM or varied ligand, caveolin-binding motif site) turn out when COc1cc(/C=C/C(=O)O)ccc1O [ferulic acid] was run?
Its intrinsic tryptophan fluorescence is “the intrinsic fluorescence intensity of PR-1La decreased in an FA-concentration-dependent manner”.
